Test results as given in patent publication US20230149355A1, “COMPOSITIONS AND METHODS FOR MODULATING TRP CHANNEL ACTIVITY” (priority 2020, published 2023).

Experiments:
zebrafish EECs (Trpa1) = experiment: In vivo EEC calcium, Tg(neurod1:Gcamp6f) zebrafish; details: trpa1b-dependent
Description: To record in vivo EEC activity using the Tg(neurod1:Gcamp6f) system, a published protocol with slight modification (Ye et al., 2019) was used. In brief, unanesthetized zebrafish larvae were gently mounted in 3% methylcellulose. Excess water was removed and zebrafish larvae were gently positioned with right side up. Zebrafish were then moved onto an upright Leica M205 FA fluorescence stereomicroscope equipped with a Leica DFC 365FX camera. The zebrafish larvae were allowed to recover for 2 mins before 100 μL of test agent was pipetted directly in front of the mouth region. Images were then recorded every 10 seconds. The data shown in FIG. 2O-R, depicting the EEC responses to E. tarda stimulation, were obtained by mounting unanesthetized zebrafish larvae in 1% low melting agarose. A window (5×5 mm) was cut to expose the head region of the zebrafish. 10 μL of E. tarda culture [˜10^9 Colony Forming Unit (CFU)] were delivered at the zebrafish mouth area. Images were recorded every 10 secs for 20 mins. Image processing and analysis were performed using FIJI software. Time-lapse fluorescence images were first aligned to correct for experimental drift using the plugin “align slices in stack.” Normalized correlation coefficient matching and bilinear interpolation methods for subpixel translation were used for aligning slices (Tseng et al., 2012). The plugin “rolling ball background subtraction” with the rolling ball radius=10 pixels was used to remove the large spatial variation of background intensities. The Gcamp6f fluorescence intensity in the intestinal region was then calculated for each time point. The ratio of maximum fluorescence (Fmax) and the initial fluorescence (F0) was used to measure EEC calcium responses.
For EEC Trpa1 activation using the Optovin platform, zebrafish larvae were treated with 10 μM Optovin overnight. Following Optovin treatment, unanesthetized zebrafish were mounted in 1% LMA and imaged under a 780 upright Zeiss confocal microscope using 20× water objective lenses. For all the experiments, the mid-intestine region was imaged (FIG. 10D). The intestinal epithelium was selected as the region of interest (ROI) (FIG. 10A). Serial images were obtained at 1 s/frame. A 405 nm pulse of light was applied to the ROI at 1 pulse/10 s. For some experiments (FIG. 7D-F, FIG. 10B-G), the images were obtained at 10 s/frame. When measuring Optovin effects on intestinal motility in ret−/−, sox10−/− or tph1b−/− zebrafish larvae, embryos were collected from heterozygous zebrafish. ret−/− zebrafish were identified by lack of ENS and deflated swim bladder (Knight et al., 2011), sox10−/− zebrafish were identified by lack of pigment (Rolig et al., 2017), and tph1b−/− zebrafish were identified by PCR-based genotyping (Tornini et al., 2017).
To determine whether Optovin-UV or ChR2 was sufficient to activate EECs, Tg(neurod1:Gcamp6f) zebrafish were used. […] The Gcamp6f signal was recorded with 488 nm laser intensity less than 0.5. The zebrafish intestinal motility is quantified through recorded image series of zebrafish intestine using the method similar as previously described (Ganz et al., 2018). […] When calculating the mean velocity, only the mean velocity magnitude was calculated, which therefore doesn't account for the movement direction. The MTrackJ FIJI plugin was used to quantify the mean velocity magnitude (Meijering et al., 2012).

vagal sensory neurons [1] = experiment: In vivo calcium imaging of vagal sensory ganglia after microgavage; parameters: species or system zebrafish; details: WT; enteric microgavage ~8 nl, AITC 100 mM, indole 1 mM, IAld 1 mM
Description: For delivering bacterial or chemicals specifically to the intestine, the established microgavage technique (Cocchiaro and Rawls, 2013) was adopted. Zebrafish were anesthetized with 1 mg/mL α-Bungarotoxin (α-BTX) and the gavage procedure was performed as previously described using microinjection station (Cocchiaro and Rawls, 2013). For bacteria gavage experiments, 1 ml of overnight bacterial culture was harvested, pelleted, washed with PBS and resuspended in 100 ul PBS.˜8 nl was then delivered into the zebrafish intestine using microgavage. The gavaged zebrafish was then transferred into egg water and mounted in 1% LMA for imaging. For chemical gavage experiments, ˜8 nl of AITC (100 mM), indole (1 mM) and IAld (1 mM) was gavaged into the intestine.
Tg(neurod1:Gcamp6f); Tg(neurod1:TagRFP) zebrafish were used to record vagal sensory ganglia calcium activity in vivo. Zebrafish were anesthetized with 1 mg/mL α-Bungarotoxin (α-BTX) and gavaged with chemical compounds or bacteria as described (Naumann et al., 2016). Zebrafish larvae were mounted in 1% LMA and imaged under a Zeiss 780 upright confocal microscope. Z-stack images of the entire vagal ganglia were collected as serial images at 10 mins/frame and processed in FIJI. Individual vagal sensory neurons were identified and the Gcamp6f to TagRFP fluorescence ratios of individual vagal sensory neurons were calculated.

vagal sensory neurons [2] = experiment: pERK immunofluorescence of vagal ganglia after microgavage; format: in vivo, zebrafish
Description: To quantify vagal activity by pERK staining, published protocol with slight modification (Randlett et al., 2015) was used. Zebrafish larvae were quickly collected by funneling through a 0.75 mm cell strainer and dropped into a 5 mL petri dish containing ice cold fix buffer (2.5% formalin+0.25% Triton 100). Larvae were fixed overnight at 4° C., then washed 3 times in PT (PBS+0.3% Triton 100), treated with 150 mM Tris-HCl (PH=9) for 15 mins at 70° C., washed with PT and digested with 0.05% trypsin-EDTA on ice for 45 mins. Following digestion, samples were then washed with PT and transferred into block solution [PT+1% bovine serum albumin (BSA, Fisher)+2% normal goat serum (NGS, Sigma)+1% dimethyl sulfoxide (DMSO)]. The primary antibodies [pERK (Cell signaling); tERK (Cell signaling); GFP (Aves Lab)] were diluted in block solution (1:150 for pERK; 1:150 for tERK and 1:500 for GFP) and samples were incubated in 100 μl of primary antibody overnight at 4° C. Following primary antibody incubation, samples were then washed with PT and incubated with secondary antibody overnight at 4° C. Samples were then washed with PBS, mounted in 1% LMA and imaged using a Zeiss 780 upright confocal microscope.
For delivering bacterial or chemicals specifically to the intestine, the established microgavage technique (Cocchiaro and Rawls, 2013) was adopted. […]

zebrafish EECs = experiment: In vivo EEC activity, Tg(neurod1:CaMPARI) zebrafish
Excerpt: CaMPARI undergoes permanent green-to-red photoconversion (PC) under 405 nm light when calcium is present. This permanent conversion records the calcium activity for all areas illuminated by PC-light. Red fluorescence intensity correlates with calcium activity during photoconversion (Fosque et al., 2015). In the Tg(neurod1:CaMPARI) zebrafish line, the CaMPARI (calcium-modulated photoactivatable ratiometric integrator) transgene is expressed under control of the −5 kb promoter cloned from the zebrafish neurod1 locus. CaMPARI mRNA is transcribed and the CaMPARI protein is expressed in cells that are able to activate the neurod1 promoter. There are multiple cell types in the zebrafish body that are sufficient to activate the neurod1 promoter, including all EECs in the intestine (Ye et al., 2019). CaMPARI protein is a calcium indicator protein that binds calcium and converts from green fluorescence to red fluorescence in the presence of UV light. This protein is engineered and described in detail in a previous publication (Fosque et al., 2015). This transgenic model was used to measure the level of intracellular calcium in EECs. […]

mouse duodenum = experiment: Amperometric measurement of 5-HT secretion, mouse small intestine; details: 50 μM HC030031
Excerpt: (§1) These experiments using C57BL/6J mice were approved by the Flinders University Animal Welfare Committee (number 965-19) and human ileum tissue was collected from resected small and large intestine from patients that gave written informed consent under the approval of the Southern Adelaide Clinical Human Research Ethics Committee (number 50.07) as previous (Sun et al., 2019a). Mice were euthanized at 8 to 12 weeks by isoflurane overdose followed by cervical dislocation. The duodenum was removed and placed in Krebs solution oxygenated with 95% O2, 5% CO2. A midline incision was made along the duodenum to create a flat sheet, the section was pinned with the mucosal side up in an organ bath lined with Sylgard and containing oxygenated Krebs solution. Serotonin release was measured using amperometry. A carbon-fibre electrode (5-μm diameter, ProCFE; Dagan Corporation, Minneapolis, Minn.), was lowered above the mucosa and 400 mV potential was applied to the electrode causing oxidation of serotonin (Zelkas et al., 2015). […] The change in amplitude due to serotonin oxidation was recorded using an EPC-10 amplifier and Pulse software (HEKA Electronic, Lambrecht/Pfalz, Germany), and samples at 10 kHz and low-pass filtered at 1 kHz. Data was assessed as peak current during each treatment. Data was analyzed comparing all groups using one-way ANOVA with Tukey's post-hoc test. […]

human ileum = experiment: Amperometric measurement of 5-HT secretion, human small intestine; details: 50 μM HC030031
Excerpt: as §1

With `C=CCN=C=S` [AITC, Allyl isothiocyanate] the “Zebrafish EEC activation (Gcamp6f fluorescence)” value (zebrafish EECs (Trpa1)) was “EEC activation”, the “Gcamp6f fluorescence in a subset of vagal sensory neurons” value (vagal sensory neurons [1]) was “significantly increased” and the “Vagal activation (pERK+) in the absence of EECs” value (vagal sensory neurons [2]; EEC-ablated zebrafish) was “abrogated”. The “Number of pERK+ vagal cells” value (vagal sensory neurons [2]; WT, microgavage, compared to PBS) was “increased”.

For `CC(C)c1ccc(NC(=O)Cn2cnc3c2c(=O)n(C)c(=O)n3C)cc1` [HC030031], the “Effect on E. tarda's ability to induce EEC activation” value (zebrafish EECs; WT fish, HC030031 280 μM, 2 hours before and during E. tarda stimulation) was “significantly inhibited”, the “Effect on indole-induced 5-HT secretion, mouse small intestine” value (mouse duodenum) was “blocked” and the “Effect on indole-induced 5-HT secretion, human small intestine” value (human ileum) was “blocked”.

`CCCCCCCCCCCC(=O)O` [laurate] was tested, and the “Percentage of activated EECs (high red:green CaMPARI ratio)” value (zebrafish EECs; linoleate, oleate, laurate 1.66 mM, butyrate 2 mM, glucose 500 mM, vs water) was “significantly increased”.
